Assay results as given in US9481676B2, “Azepino[4,5-B]indoles and methods of use” (Medivation Technologies, Inc., priority 2008, dated 2016).

Tests used:
[1] = biological target: T1, human recombinant histamine H1 receptor (Homo sapiens, UniProt P35367); assay: Histamine H1 radioligand binding ([3H]Pyrilamine); details: compound at 1 μM; read-out: Histamine Binding (1 μM) H1, percent inhibition of specific binding
T1 construct: expressed in transfected cells; host or cells: CHO cells
Procedure: To evaluate in radioligand binding assays the activity of compounds of the invention, human recombinant histamine H1 receptor expressed in Chinese hamster ovary (CHO) cells (De Backer, M. D. et al., Biochem. Biophys. Res. Comm. 197(3):1601, 1993) in a modified Tris-HCl buffer (50 mM Tris-HCl, pH 7.4, 2 mM MgCl2, 100 mM NaCl, 250 mM Sucrose) was used. Compounds of the invention were incubated with 1.2 nM [^3H]Pyrilamine for 180 min. at 25° C. Non-specific binding was estimated in the presence of 1 μM pyrilamine. Receptor proteins were filtered and washed, the filters were then counted to determine [^3H]Pyrilamine specifically bound. Compounds were screened at 1 μM or lower, using 1% DMSO as vehicle. Biochemical assay results are presented as the percent inhibition of specific binding in Table 6.

[2] = biological target: T2, human recombinant histamine H2 receptor (Homo sapiens, UniProt P25021); assay: Histamine H2 radioligand binding ([125I]Aminopotentidine); details: compound at 1 μM; read-out: Histamine Binding (1 μM) H2, percent inhibition of specific binding
T2 construct: expressed in transfected cells; host or cells: CHO-K1 cells
Procedure: To evaluate in radioligand binding assays the activity of compounds of the invention, human recombinant histamine H2 receptor expressed in Chinese hamster ovary (CHO) K1 cells (Ruat, M., Proc. Natl. Acad. Sci. USA. 87(5):1658, 1990) in a 50 mM Phosphate buffer, pH 7.4 was used. Compounds of the invention were incubated with 0.1 nM [^125I]Aminopotentidine for 120 min. at 25° C. Non-specific binding was estimated in the presence of 3 μM Tiotidine. Receptor proteins were filtered and washed, the filters were then counted to determine [^125I]Aminopotentidine specifically bound. Compounds were screened at 1 μM or lower, using 1% DMSO as vehicle. Biochemical assay results are presented as the percent inhibition of specific binding in Table 6.

[3] = biological target: T3, human recombinant serotonin (5-Hydroxytryptamine) 5-HT2C receptor (Homo sapiens, UniProt P28335); assay: Serotonin 5-HT2C radioligand binding ([3H]Mesulergine); details: compound at 1 μM; read-out: Serotonin (1 μM) 5-HT2C, percent inhibition of specific binding
T3 construct: expressed in transfected cells; host or cells: CHO-K1 cells
T3 sequence (P28335 33-458): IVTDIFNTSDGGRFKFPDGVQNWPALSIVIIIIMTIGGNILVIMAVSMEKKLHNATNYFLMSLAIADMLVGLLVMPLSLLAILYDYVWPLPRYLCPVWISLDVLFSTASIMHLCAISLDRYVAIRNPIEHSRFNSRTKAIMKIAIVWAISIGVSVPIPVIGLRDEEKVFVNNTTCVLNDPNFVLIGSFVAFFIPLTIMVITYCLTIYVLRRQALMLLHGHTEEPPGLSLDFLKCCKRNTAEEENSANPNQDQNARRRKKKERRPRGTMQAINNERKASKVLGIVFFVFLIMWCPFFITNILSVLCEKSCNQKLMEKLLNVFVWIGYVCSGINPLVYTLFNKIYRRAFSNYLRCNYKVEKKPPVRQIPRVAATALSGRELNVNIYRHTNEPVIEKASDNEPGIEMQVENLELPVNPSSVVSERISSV
Procedure: To evaluate in radioligand binding assays the activity of compounds of the invention, human recombinant serotonin (5-Hydroxytryptamine) 5-HT2C receptor expressed in Chinese hamster ovary (CHO-K1) cells (Wolf, W. A. and Schutz, J. S., J. Neurochem. 69:1449, 1997) in a modified Tris-HCl buffer (50 mM Tris-HCl, pH 7.4, 0.1% Ascorbic Acid, 10 μM Pargyline) was used. Compounds of the invention were incubated with 1 nM [^3H]Mesulergine for 60 min. at 25° C. Non-specific binding was estimated in the presence of 1 μM Mianserin. Receptor proteins were filtered and washed, the filters were then counted to determine [^3H]Mesulergine specifically bound. Compounds were screened at 1 μM or lower, using 1% DMSO as vehicle. Biochemical assay results are presented as the percent inhibition of specific binding in Table 6.

[4] = biological target: T4, human recombinant dopamine D2L receptor (Homo sapiens, UniProt P14416); assay: Dopamine D2L radioligand binding ([3H]Spiperone); details: compound at 1 μM; read-out: Dopamine (1 μM) D2L, percent inhibition of specific binding
T4 construct: expressed in transfected cells; host or cells: CHO cells
Procedure: To evaluate in radioligand binding assays the activity of compounds of the invention, human recombinant dopamine D2L receptor expressed in Chinese hamster ovary (CHO) cells (Grandy, D. K. et al. Proc. Natl. Acad. Sci. USA. 86:9762, 1989; Hayes, G. et al., Mol. Endocrinol. 6:920, 1992) in a modified Tris-HCl buffer (50 mM Tris-HCl, pH 7.4, 1.4 mM Ascorbic Acid, 0.001% BSA, 150 mM NaCl) was used. Compounds of the invention were incubated with 0.16 nM [^3H]Spiperone for 120 min. at 25° C. Non-specific binding was estimated in the presence of 10 μM Haloperidol. Receptor proteins were filtered and washed, the filters were then counted to determine [^3H]Spiperone specifically bound. Compounds were screened at 1 μM or lower, using 1% DMSO as vehicle. Biochemical assay results are presented as the percent inhibition of specific binding in Table 5.

[5] = biological target: T5, human recombinant serotonin (5-Hydroxytryptamine) 5-HT2A receptor (Homo sapiens, UniProt P28223); assay: Serotonin 5-HT2A radioligand binding ([3H]Ketanserin); details: compound at 1 μM; read-out: Serotonin (1 μM) 5-HT2A, percent inhibition of specific binding
T5 construct: expressed in transfected cells; host or cells: CHO-K1 cells
Procedure: To evaluate in radioligand binding assays the activity of compounds of the invention, human recombinant serotonin (5-Hydroxytryptamine) 5-HT2A receptor expressed in Chinese hamster ovary (CHO-K1) cells (Bonhaus, D. W. et al. Br. J. Pharmacol. 115:622, 1995; Saucier, C. and Albert, P. R., J. Neurochem. 68:1998, 1997) in a 50 mM Tris-HCl buffer, pH 7.4, was used. Compounds of the invention were incubated with 0.5 nM [^3H]Ketanserin for 60 min. at 25° C. Non-specific binding was estimated in the presence of 1 μM Mianserin. Receptor proteins were filtered and washed, the filters were then counted to determine [^3H]Ketanserin specifically bound. Compounds were screened at 1 μM or lower, using 1% DMSO as vehicle. Biochemical assay results are presented as the percent inhibition of specific binding in Table 6.

[6] = biological target: T6, human recombinant serotonin (5-Hydroxytryptamine) 5-HT6 receptor (Homo sapiens, UniProt P50406); assay: Serotonin 5-HT6 radioligand binding ([3H]LSD); details: compound at 1 μM; read-out: Serotonin (1 μM) 5-HT6, percent inhibition of specific binding
T6 construct: expressed in transfected cells; host or cells: human HeLa cells
Procedure: To evaluate in radioligand binding assays the activity of compounds of the invention, human recombinant serotonin (5-Hydroxytryptamine) 5-HT6 receptor expressed in human HeLa cells (Monsma, F. J. Jr. et al., Mol. Pharmacol. 43:320, 1993) in a modified Tris-HCl buffer (50 mM Tris-HCl, pH 7.4, 150 mM NaCl, 2 mM Ascorbic Acid, 0.001% BSA) was used. Compounds of the invention were incubated with 1.5 nM [3H]Lysergic acid diethylamide (LSD) for 120 min. at 37° C. Non-specific binding was estimated in the presence of 5 μM Serotonin (5-HT). Receptor proteins were filtered and washed, the filters were then counted to determine [3H]LSD specifically bound. Compounds were screened at 1 μM or lower, using 1% DMSO as vehicle. Biochemical assay results are presented as the percent inhibition of specific binding in Table 6.

T2 sequence (P25021 whole entry): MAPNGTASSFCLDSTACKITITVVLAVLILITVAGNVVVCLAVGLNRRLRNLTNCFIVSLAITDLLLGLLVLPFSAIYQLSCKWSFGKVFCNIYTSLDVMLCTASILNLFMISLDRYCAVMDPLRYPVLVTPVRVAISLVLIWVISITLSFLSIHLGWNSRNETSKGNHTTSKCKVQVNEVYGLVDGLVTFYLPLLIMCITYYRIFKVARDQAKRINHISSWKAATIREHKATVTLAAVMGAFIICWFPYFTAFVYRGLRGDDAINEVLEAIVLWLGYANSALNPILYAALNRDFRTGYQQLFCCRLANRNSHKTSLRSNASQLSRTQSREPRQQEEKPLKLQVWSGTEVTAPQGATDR
T6 sequence (P50406 whole entry): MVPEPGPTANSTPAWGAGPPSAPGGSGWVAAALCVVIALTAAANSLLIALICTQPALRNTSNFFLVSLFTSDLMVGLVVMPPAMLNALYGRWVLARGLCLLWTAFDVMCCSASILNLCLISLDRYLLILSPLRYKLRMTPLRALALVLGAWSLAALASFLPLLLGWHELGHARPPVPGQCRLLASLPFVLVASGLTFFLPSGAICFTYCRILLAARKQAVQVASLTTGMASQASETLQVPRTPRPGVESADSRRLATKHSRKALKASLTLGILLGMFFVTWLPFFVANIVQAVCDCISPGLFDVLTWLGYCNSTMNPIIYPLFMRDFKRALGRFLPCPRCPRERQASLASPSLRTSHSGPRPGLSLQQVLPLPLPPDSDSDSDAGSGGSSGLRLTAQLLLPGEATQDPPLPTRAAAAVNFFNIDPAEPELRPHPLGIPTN
T1 sequence (P35367 whole entry): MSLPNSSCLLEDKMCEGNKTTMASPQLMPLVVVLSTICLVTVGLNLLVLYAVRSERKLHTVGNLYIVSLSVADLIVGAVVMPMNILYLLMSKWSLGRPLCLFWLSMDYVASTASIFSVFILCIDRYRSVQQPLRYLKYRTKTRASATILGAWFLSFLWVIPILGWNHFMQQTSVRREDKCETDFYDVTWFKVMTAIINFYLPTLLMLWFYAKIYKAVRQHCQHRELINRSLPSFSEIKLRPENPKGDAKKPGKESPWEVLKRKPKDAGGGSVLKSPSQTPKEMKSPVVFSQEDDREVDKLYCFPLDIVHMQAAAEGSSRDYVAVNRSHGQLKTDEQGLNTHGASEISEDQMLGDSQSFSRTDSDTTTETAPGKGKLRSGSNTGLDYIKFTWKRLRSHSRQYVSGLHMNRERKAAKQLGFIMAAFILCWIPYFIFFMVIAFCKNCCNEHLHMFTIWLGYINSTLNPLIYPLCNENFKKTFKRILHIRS
T5 sequence (P28223 whole entry): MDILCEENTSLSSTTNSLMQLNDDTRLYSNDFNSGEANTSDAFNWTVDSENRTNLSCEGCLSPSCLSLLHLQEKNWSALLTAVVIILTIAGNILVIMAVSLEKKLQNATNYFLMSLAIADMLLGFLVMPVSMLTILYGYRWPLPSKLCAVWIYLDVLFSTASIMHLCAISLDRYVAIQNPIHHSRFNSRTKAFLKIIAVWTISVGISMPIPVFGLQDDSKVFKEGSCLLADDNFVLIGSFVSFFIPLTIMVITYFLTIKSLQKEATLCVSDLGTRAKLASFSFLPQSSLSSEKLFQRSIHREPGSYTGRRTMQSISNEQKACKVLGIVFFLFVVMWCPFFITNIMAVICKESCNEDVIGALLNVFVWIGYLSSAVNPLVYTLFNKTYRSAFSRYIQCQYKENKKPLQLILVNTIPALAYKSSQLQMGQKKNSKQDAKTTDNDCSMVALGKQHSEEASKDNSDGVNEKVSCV
T4 sequence (P14416 whole entry): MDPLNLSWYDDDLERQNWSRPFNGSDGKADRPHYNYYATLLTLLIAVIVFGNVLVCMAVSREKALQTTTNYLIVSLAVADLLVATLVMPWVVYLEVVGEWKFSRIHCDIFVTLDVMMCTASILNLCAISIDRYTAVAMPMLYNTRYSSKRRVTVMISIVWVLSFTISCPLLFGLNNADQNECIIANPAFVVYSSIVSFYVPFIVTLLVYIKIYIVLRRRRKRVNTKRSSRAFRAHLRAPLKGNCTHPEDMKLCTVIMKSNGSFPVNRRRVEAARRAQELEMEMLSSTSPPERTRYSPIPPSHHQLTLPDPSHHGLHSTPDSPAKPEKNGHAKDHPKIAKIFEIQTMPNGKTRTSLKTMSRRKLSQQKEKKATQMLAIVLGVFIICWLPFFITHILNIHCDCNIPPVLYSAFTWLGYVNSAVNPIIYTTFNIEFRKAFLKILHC

Compound	inhibition at 1 µM [1]	inhibition at 1 µM [2]	inhibition at 1 µM [3]	inhibition at 1 µM [4]	inhibition at 1 µM [5]	inhibition at 1 µM [6]
C/C(=C\n1c2c(c3cc(Cl)ccc31)CCN(C)CC2)c1ccc(Cl)c(Cl)c1 [Compound No. 154, (E)-9-chloro-6-(2-(3,4-dichlorophenyl)prop-1-enyl)-1,2,3,4,5,6-hexahydro-3-methylazepino[4,5-b]indole]	94%	97%	99%	33%	100%	92%
C/C(=C\n1c2c(c3cc(Cl)ccc31)CCN(C)CC2)c1ccc(F)c(F)c1 [Compound No. 155, (E)-9-chloro-6-(2-(3,4-difluorophenyl)prop-1-enyl)-1,2,3,4,5,6-hexahydro-3-methylazepino[4,5-b]indole]	93%	92%	98%	38%	99%	101%
COc1ccc(/C(C)=C/n2c3c(c4cc(Cl)ccc42)CCN(C)CC3)cc1F [Compound No. 157, (E)-9-chloro-6-(2-(3-fluoro-4-methoxyphenyl)prop-1-enyl)-1,2,3,4,5,6-hexahydro-3-methylazepino[4,5-b]indole]	68%	93%	101%	24%	98%	78%
COc1ccc(/C(C)=C/n2c3c(c4cc(Cl)ccc42)CCN(C)CC3)cc1 [Compound No. 160, (E)-9-chloro-1,2,3,4,5,6-hexahydro-6-(2-(4-methoxyphenyl)prop-1-enyl)-3-methylazepino[4,5-b]indole]	87%	91%	103%	17%	94%	99%
C/C(=C\n1c2c(c3cc(C)ccc31)CCN(C)CC2)c1ccc(Cl)c(Cl)c1 [Compound No. 176, (E)-6-(2-(3,4-dichlorophenyl)prop-1-enyl)-1,2,3,4,5,6-hexahydro-3,9-dimethylazepino[4,5-b]indole]	82%	95%	99%	23%	99%	74%
C/C(=C\n1c2c(c3cc(C)ccc31)CCN(C)CC2)c1ccc(F)c(F)c1 [Compound No. 177, (E)-6-(2-(3,4-difluorophenyl)prop-1-enyl)-1,2,3,4,5,6-hexahydro-3,9-dimethylazepino[4,5-b]indole]	93%	92%	99%	25%	98%	96%
COc1ccc(/C(C)=C/n2c3c(c4cc(C)ccc42)CCN(C)CC3)cc1F [Compound No. 179, (E)-6-(2-(3-fluoro-4-methoxyphenyl)prop-1-enyl)-1,2,3,4,5,6-hexahydro-3,9-dimethylazepino[4,5-b]indole]	45%	88%	100%	23%	98%	77%
COc1ccc(/C(C)=C/n2c3c(c4cc(C)ccc42)CCN(C)CC3)cc1 [Compound No. 182, (E)-1,2,3,4,5,6-hexahydro-6-(2-(4-methoxyphenyl)prop-1-enyl)-3,9-dimethylazepino[4,5-b]indole]	62%	92%	102%	19%	101%	96%
C/C(=C/n1c2c(c3cc(C)ccc31)CCN(C)CC2)c1ccccc1F [Compound No. 240, (Z)-6-(2-(2-fluorophenyl)prop-1-enyl)-3,9-dimethyl-1,2,3,4,5,6-hexahydroazepino[4,5-b]indole]	96%	87%	97%	57%	98%	102%
